Experimental data as given in patent US20260124214A1, “HETEROCYCLIC COMPOUNDS FOR USE IN THE TREATMENT OF CANCER” (ARTIOS PHARMA LIMITED, priority 2021, published 2026).

Biological target: T1, Human Polθ polymerase domain (aa1820-2590) (Homo sapiens, UniProt O75417)
T1 construct: Human Polθ polymerase domain (aa1820-2590) was expressed in E. Coli; made in house; host or cells: E. coli
T1 sequence (O75417 1820-2590): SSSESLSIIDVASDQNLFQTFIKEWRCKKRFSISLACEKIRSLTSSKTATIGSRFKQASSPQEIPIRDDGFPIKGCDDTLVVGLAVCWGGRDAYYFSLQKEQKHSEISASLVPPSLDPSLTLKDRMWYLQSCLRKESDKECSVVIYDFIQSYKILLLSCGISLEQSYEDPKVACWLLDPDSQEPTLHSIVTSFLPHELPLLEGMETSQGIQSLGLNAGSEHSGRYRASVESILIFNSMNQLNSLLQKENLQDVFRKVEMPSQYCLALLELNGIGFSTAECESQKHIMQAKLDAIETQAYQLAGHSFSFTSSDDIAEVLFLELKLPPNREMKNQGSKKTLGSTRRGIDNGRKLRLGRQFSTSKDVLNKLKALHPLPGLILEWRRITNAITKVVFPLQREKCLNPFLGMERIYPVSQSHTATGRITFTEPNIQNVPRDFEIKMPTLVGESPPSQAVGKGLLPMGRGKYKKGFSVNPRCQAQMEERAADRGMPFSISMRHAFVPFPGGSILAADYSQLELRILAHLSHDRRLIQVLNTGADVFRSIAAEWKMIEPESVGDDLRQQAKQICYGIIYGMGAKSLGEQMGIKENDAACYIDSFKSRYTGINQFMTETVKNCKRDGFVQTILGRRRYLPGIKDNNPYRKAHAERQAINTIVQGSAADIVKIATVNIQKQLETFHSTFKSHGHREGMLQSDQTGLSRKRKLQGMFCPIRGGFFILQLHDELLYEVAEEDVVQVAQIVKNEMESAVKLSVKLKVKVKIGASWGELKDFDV
Test: Polθ Polymerase Domain WT KI Assay (PicoGreen)
Format: biochemical
Conditions: 100 nM DNA substrate, 0.156 nM Polθ, initial rates vs inhibitor concentration
Method in brief: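 E. coli-expressed human Polθ polymerase domain (aa1820-2590) on annealed DNA II Short/Long primer-template (1.2:1), in 25 mM Tris pH 7.5, NaCl, 5% glycerol, 0.01% Triton X-100, 0.1 mg/ml BSA, 1 mM DTT, 1% DMSO. EDTA-quenched timepoints to 180 min, PicoGreen fluorescence. Initial rates vs inhibitor concentration fitted four-parameter for KI.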

| Ki [nM] | SMILES |
| --- | --- |
| 0.622 | Cc1cc(C(F)(F)F)cc(N2C(=O)C[C@@H]3CN(CC4CCN(C5COC5)CC4)c4c(Cl)cccc4N(C)C(=O)[C@H]32)n1 [Example 85, (3aR,11aS)-6-Chloro-10-methyl-1-(6-methyl-4-(trifluoromethyl)pyridin-2-yl)-5-((1-(oxetan-3-yl)piperidin-4-yl)methyl)-1,3a,4,5,10,11a-hexahydro-2H-benzo[b]pyrrolo[2,3-f][1,4]diazocine-2,11(3H)-dione] |
| 10.1 | Cc1cc(C(F)(F)F)cc(N2C(=O)C[C@@H]3CN(CCCN4CCOCC4)c4c(F)cccc4N(C)C(=O)[C@H]32)n1 [Example 137, (3aR,11aS)-6-Fluoro-10-methyl-1-(6-methyl-4-(trifluoromethyl)pyridin-2-yl)-5-(3-morpholinopropyl)-1,3a,4,5,10,11a-hexahydro-2H-benzo[b]pyrrolo[2,3-f][1,4]diazocine-2,11(3H)-dione] |
